{"source": "paper PMC11023033", "test": "CuAAC: 1,7-diethynyl PDI 8 + bis-azide, [1+1] macrocyclisation; Cu(MeCN)4PF6 0.4 eq with TBTA 0.4 eq (THPTA for 2a), N2, rt", "conditions": "the molecule shown is the open-chain precursor, CH2Cl2, 0.22 mM, 25.0 °C"}
{"smiles": "C#Cc1cc2c3c(ccc4c5c(-c6cn(CCCCCCCCOc7ccc8ccccc8c7-c7c(OCCCCCCCCN=[N+]=[N-])ccc8ccccc78)nn6)cc6c7c(ccc(c1c34)c75)C(=O)N(c1c(C(C)C)cccc1C(C)C)C6=O)C(=O)N(c1c(C(C)C)cccc1C(C)C)C2=O", "values": [{"measurement": "ring closure, isolated yield", "setting": "34-membered ring, 96.0 h", "value": 33, "unit": "%"}]}
{"smiles": "C#Cc1cc2c3c(ccc4c5c(-c6cn(CCCCCCOc7ccc8ccccc8c7-c7c(OCCCCCCN=[N+]=[N-])ccc8ccccc78)nn6)cc6c7c(ccc(c1c34)c75)C(=O)N(c1c(C(C)C)cccc1C(C)C)C6=O)C(=O)N(c1c(C(C)C)cccc1C(C)C)C2=O", "values": [{"measurement": "ring closure, isolated yield", "setting": "30-membered ring, 96.0 h", "value": 53, "unit": "%"}]}
{"smiles": "C#Cc1cc2c3c(ccc4c5c(-c6cn(CCCCOc7ccc(OCCCCN=[N+]=[N-])cc7)nn6)cc6c7c(ccc(c1c34)c75)C(=O)N(c1c(C(C)C)cccc1C(C)C)C6=O)C(=O)N(c1c(C(C)C)cccc1C(C)C)C2=O", "note": "[1a (hydroquinone, n=4)]", "values": [{"measurement": "ring closure, isolated yield", "setting": "26-membered ring, 96.0 h", "value": 24, "unit": "%"}]}
{"smiles": "C#Cc1cc2c3c(ccc4c5c(-c6cn(CCCCCCOc7ccc(OCCCCCCN=[N+]=[N-])cc7)nn6)cc6c7c(ccc(c1c34)c75)C(=O)N(c1c(C(C)C)cccc1C(C)C)C6=O)C(=O)N(c1c(C(C)C)cccc1C(C)C)C2=O", "note": "[1b (hydroquinone, n=6)]", "values": [{"measurement": "ring closure, isolated yield", "setting": "30-membered ring, 96.0 h", "value": 23, "unit": "%"}]}
{"smiles": "C#Cc1cc2c3c(ccc4c5c(-c6cn(CCCCOc7ccc8ccccc8c7-c7c(OCCCCN=[N+]=[N-])ccc8ccccc78)nn6)cc6c7c(ccc(c1c34)c75)C(=O)N(c1c(C(C)C)cccc1C(C)C)C6=O)C(=O)N(c1c(C(C)C)cccc1C(C)C)C2=O", "note": "[2a (P-BINOL, n=4; PM 2% + PP 2%, dr 1:1)]", "values": [{"measurement": "ring closure, isolated yield", "setting": "26-membered ring, 144.0 h", "value": 4, "unit": "%"}]}
